{"source": "patent US20230364084A1", "about": "“METHODS FOR PREVENTING OR TREATING CONDITIONS RELATED TO PIKFYVE ACTIVITY” (The Regents of the University of Michigan, priority 2020, published 2023)", "key": {"[1]": {"system": "Atg8", "test": "yeast autophagy detection (Atg8 immunoblot)", "type": "cell-based", "conditions": "drug permeable yeast strain (prd5Δ), 3 μM, nitrogen deprivation", "method": "The yeast strains used in this study were YAB499 (SEY6210, pho13Δ pho8Δ60, pdr5Δ::Kan). Protein extraction and immunoblot were performed as previously described^59. Antisera to Atg8 and Pgk1 (a generous gift from Dr. Jeremy Thorner, University of California, Berkeley) were used as previously described. Cells were treated with either 3 μM ESK981, 3 μM cabozantinib, or the equivalent amount of DMSO as control for the indicated times."}, "[2]": {"system": "prostate cancer cell lines", "test": "cell cycle analysis", "type": "cell-based, human", "method": "Cells were seeded in 6-well plates and treated with various drugs for 72 hours. Single cells were fixed with 70% ethanol, stained with propidium iodine, and cell cycle was analyzed by flow cytometry."}, "[3]": {"system": "GFP-LC3-RFP-LC3ΔG-expressing Myc-CaP cells", "test": "autophagic flux detection in Myc-CaP cells", "type": "cell-based, mouse", "conditions": "24 hours", "method": "For autophagic flux detection, 10,000 cells were plated in 96-well plates and incubated with various compounds in complete medium for 24 hours. GFP and RFP fluorescence intensities were measured on a TECAN M1000 plate reader."}, "[4]": {"system": "LC3-II in prostate cancer cell lines", "test": "LC3 lipidation western blot", "type": "cell-based, human", "method": "Cell lysates were harvested in Pierce RIPA Lysis buffer (Thermo Scientific) containing protease inhibitor cocktail tablets (Roche) and phosphatase inhibitor cocktail (Millipore). Protein concentration was measured using the DC Protein Assay (Bio-Rad) to ensure an equal amount of protein was loaded onto a gel. The denatured lysates were separated on NuPage 4-12% Bis-Tris Midi Protein gels (Novex) and transferred to 0.45-μm PVDF transfer membrane (Immobilon) using a TransBlot Turbo dry transfer machine (Bio-Rad). The membrane was incubated in blocking buffer (5% non-fat dry milk, Tris-buffered saline with 0.1% Tween 20) for 1 hour at room temperature. The membrane was then incubated with the listed antibodies for 1 hour at room temperature, followed by overnight incubation at 4° C. Chemiluminescent detection using ECL Prime (Amersham) and HyBlot CL autoradiography film (Denville Scientific) was used to visualize the blots. Antibodies used in the immunoblotting assays were against ATG5 (Cat No. 12994S, Cell Signaling Technology), ATG7 (Cat No. 8558S, Cell Signaling Technology), ULK1 (Cat No. 8054S, Cell Signaling Technology), Beclin1 (Cat No. 4122S, Cell Signaling Technology), FIP200 (Cat No. 12436S, Cell Signaling Technology), LC3A/B (Cat No. 127415, Cell Signaling Technology), PIKfyve (Cat No. AF7885, R&D Systems), and GAPDH (Cat No. 3683S, Cell Signaling Technology)."}, "[5]": {"test": "toxicity evaluation in mice (body weight, serum chemistry, organ histology)", "type": "in vivo, mouse", "method": "To determine whether ESK981-mediated growth inhibition translated into anti-tumor effects, the efficacy of ESK981 in blocking prostate cancer growth in mouse xenograft models was assessed. VCaP cells were chosen for initial experiments because this cell line harbors the TMPRSS2:ERG gene fusion and AR amplification, both of which are frequent molecular aberrations in patients with advanced CRPC^29. A castration-resistant VCaP tumor-bearing xenograft mouse model was generated to mimic disease progression in human patients (FIG. 3a).\nWhole blood was collected using BD Microtainer SST tubes, and serum was isolated by centrifugation at 7000 rpm for 10 minutes. Sera were submitted to the University of Michigan ULAM Pathology Cores for Animal Research for liver and renal chemistry analysis."}, "[6]": {"target": "PIKfyve (Homo sapiens, UniProt Q9Y2I7)", "sequence (Q9Y2I7 whole entry)": "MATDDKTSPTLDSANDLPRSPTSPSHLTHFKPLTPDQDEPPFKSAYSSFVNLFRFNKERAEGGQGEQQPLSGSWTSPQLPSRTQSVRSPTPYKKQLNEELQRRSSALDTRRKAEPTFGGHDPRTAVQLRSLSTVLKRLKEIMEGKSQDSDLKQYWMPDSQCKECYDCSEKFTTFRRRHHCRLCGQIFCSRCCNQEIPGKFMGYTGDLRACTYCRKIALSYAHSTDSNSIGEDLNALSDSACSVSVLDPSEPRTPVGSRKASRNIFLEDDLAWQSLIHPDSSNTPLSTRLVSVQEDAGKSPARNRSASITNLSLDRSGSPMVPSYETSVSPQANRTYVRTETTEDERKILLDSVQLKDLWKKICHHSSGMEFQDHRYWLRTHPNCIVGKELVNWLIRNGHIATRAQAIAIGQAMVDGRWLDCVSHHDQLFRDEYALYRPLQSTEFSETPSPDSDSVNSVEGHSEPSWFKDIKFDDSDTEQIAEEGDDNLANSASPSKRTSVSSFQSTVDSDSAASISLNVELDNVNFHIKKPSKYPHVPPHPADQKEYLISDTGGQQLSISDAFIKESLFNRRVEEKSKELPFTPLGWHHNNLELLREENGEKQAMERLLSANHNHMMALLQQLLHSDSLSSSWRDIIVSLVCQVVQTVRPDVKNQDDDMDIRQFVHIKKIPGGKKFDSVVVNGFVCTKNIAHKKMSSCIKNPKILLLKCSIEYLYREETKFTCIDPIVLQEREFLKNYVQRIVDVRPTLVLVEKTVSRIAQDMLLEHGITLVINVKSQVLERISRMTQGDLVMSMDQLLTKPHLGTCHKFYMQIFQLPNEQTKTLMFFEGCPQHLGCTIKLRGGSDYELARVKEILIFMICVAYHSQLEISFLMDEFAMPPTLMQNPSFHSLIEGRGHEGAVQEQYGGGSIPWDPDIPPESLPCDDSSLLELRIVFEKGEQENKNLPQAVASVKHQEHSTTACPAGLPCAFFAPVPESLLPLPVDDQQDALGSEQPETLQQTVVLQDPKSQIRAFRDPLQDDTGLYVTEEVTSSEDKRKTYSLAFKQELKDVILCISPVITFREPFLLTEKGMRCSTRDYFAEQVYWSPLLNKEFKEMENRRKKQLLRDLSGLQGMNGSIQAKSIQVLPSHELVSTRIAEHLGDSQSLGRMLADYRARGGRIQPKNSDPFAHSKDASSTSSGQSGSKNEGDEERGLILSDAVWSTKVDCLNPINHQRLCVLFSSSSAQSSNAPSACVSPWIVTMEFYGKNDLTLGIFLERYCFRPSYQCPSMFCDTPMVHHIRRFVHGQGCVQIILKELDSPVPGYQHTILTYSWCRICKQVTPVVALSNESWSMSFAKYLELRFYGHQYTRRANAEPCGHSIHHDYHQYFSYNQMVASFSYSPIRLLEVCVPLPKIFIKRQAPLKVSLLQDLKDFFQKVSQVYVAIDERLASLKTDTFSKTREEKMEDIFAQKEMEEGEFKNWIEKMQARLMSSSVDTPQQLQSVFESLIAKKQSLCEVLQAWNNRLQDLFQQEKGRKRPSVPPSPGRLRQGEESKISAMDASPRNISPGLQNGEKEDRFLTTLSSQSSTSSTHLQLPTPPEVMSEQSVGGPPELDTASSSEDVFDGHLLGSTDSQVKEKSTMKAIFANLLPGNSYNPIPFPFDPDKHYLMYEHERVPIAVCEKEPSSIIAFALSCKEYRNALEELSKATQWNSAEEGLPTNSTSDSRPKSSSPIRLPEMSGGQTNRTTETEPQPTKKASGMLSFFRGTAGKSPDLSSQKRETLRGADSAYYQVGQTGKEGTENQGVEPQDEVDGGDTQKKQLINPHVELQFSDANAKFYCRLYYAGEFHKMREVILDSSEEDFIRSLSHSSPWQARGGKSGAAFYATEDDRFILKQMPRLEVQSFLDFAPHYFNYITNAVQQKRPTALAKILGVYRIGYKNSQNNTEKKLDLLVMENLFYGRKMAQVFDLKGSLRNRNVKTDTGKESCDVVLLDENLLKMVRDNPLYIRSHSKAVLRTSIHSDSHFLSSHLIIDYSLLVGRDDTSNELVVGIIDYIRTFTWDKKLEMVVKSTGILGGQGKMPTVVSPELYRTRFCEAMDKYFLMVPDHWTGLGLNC", "test": "cellular thermal shift assay", "type": "cell-based", "design": "endogenous in cells; host or cells: VCaP cells", "conditions": "VCaP cells, 1 μM, 2 hours", "method": "The ability of compounds to interact with, and thereby stabilize the target in intact cells, was analyzed essentially as previously described^60,61. The target engagement of ESK981 to PIKfyve was performed in VCaP cells. Cells were treated with DMSO, ESK981 (1 μM), or apilimod (1 μM) for 2 hours at 37° C. and 5% CO2, and 1×10^6 single cell suspensions were diluted into 50 μl of PBS containing protease inhibitor. Cell suspensions were then incubated in a PCR thermal cycler at various temperatures for 2 cycles of 3 minutes heating followed by 3 minutes cooling at room temperature. Cells were lysed by three cycles of freeze-thawing using liquid nitrogen. 20 μl of the soluble fraction of cell lysates were analyzed by western blot."}, "[7]": {"system": "LAMP1 in DU145 cells", "test": "LAMP1 immunofluorescence", "type": "cell-based, human", "conditions": "300 nM, 24 hours", "method": "For LAMP1 immunofluorescence, cells were seeded on coverslips overnight and treated with ESK981 at 300 nM for 24 hours. Coverslips were fixed with 10% paraformaldehyde and permeabilized with 10% saponin. Coverslips were then blocked with 10% goat serum and stained with LAMP1 antibody (Cat No. 9091, Cell Signaling Technology) and fluorescently-labelled secondary antibody. Confocal images were taken using a Nikon A1 confocal microscope."}}, "data": [{"smiles": "CC(C)Cn1c2ccc(Nc3ncccn3)cc2c2c3c(c4c(c21)CCc1nn(C)cc1-4)C(=O)NC3", "note": "[ESK981, 13-isobutyl-4-methyl-10-(pyrimidin-2-ylamino)-1,2,4,7,8,13-hexahydro-6H-indazolo[5,4-a]pyrrolo[3,4-c]carbazol-6-one]", "values": [{"measurement": "lipidated Atg8", "setting": "[1]", "result": "increase in lipidated Atg8"}, {"measurement": "cell cycle arrest", "setting": "[2]; 72 hours, increasing concentrations", "result": "dose-dependent G2/M phase arrest"}, {"measurement": "G2/M arrest compared with other inhibitors", "setting": "[2]; VCaP cells, ESK981 100 nM vs cabozantinib 5 μM, crizotinib 3 μM, enzalutamide 10 μM", "result": "greater G2/M arrest potential at a lower concentration"}, {"measurement": "autophagic flux", "setting": "[3]", "result": "inhibited"}, {"measurement": "time to evidence of increase in LC3-II", "setting": "[4]; VCaP cells, 300 nM", "result": "within three hours"}, {"measurement": "total level of LC3 lipidation", "setting": "[4]; numerous prostate cancer cell lines, 24 hours, dose-dependent", "result": "increase in the total level of LC3 lipidation"}, {"measurement": "tissue vacuolization in major organs", "setting": "[5]; H&E staining of organs of ESK981-treated mice", "result": "no major organs were found to have the same tissue vacuolization morphology"}, {"measurement": "body weight loss", "setting": "[5]; VCaP tumor-bearing mice", "result": "within the range of tolerance"}, {"measurement": "tolerability in mice", "setting": "[5]; body weight, liver and kidney serum chemistry, histology of major organs", "result": "well-tolerated"}, {"measurement": "cellular target engagement on PIKfyve", "setting": "[6]", "result": "confirmed"}, {"measurement": "LAMP1 staining of ESK981-induced vacuoles", "setting": "[7]", "result": "positive for the lysosomal marker LAMP1"}]}]}
